Laboratory results reported in PubChem BioAssay AID2060333 (Molecular Pharmacology Branch, DTP, NCI, 2025).

Tested on: 845751-090-R-J2-PDC tumor spheroid viability
Assay: Anticancer human tumor 845751-090-R-J2-PDC patient-derived head and neck squamous carcinoma cell line growth inhibition [IpAb]
Details: spheroids with HUVEC and MSC; for IC50: curve of first compound; for viability, T/C: stronger effect = lower value; active = viability on the fitted dose curve at most 10% of control; inactive = the rest
Outline: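 Spheroids of 60% malignant cells, 25% HUVEC and 15% MSC were exposed to targeted agents combined with ipatasertib or abemaciclib. Doses started at or near clinical Cmax (10 microM when unknown) and fell in half-log steps.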

[1] = second compound 0.01 µM, first compound 0.0316 µM
[2] = second compound 0.01 µM, first compound 0.1 µM
[3] = second compound 0.0316 µM, first compound 0.0316 µM
[4] = second compound 0.0316 µM, first compound 0.1 µM
[5] = second compound 0.1 µM, first compound 0.0316 µM
[6] = second compound 0.1 µM, first compound 0.1 µM
[7] = second compound 0.316 µM, first compound 0.0316 µM
[8] = second compound 0.316 µM, first compound 0.1 µM
[9] = second compound 1 µM, first compound 0.0316 µM
[10] = second compound 1 µM, first compound 0.1 µM
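Note: spheroids exposed to compounds for 7 days before readout.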
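Throughout, for viability, T/C: CTG3D luminescence normalised so that 100% = DMSO vehicle control.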

CC(C)n1nc(-c2ccc3oc(N)nc3c2)c2c(N)ncnc21 + CCN1CCN(Cc2ccc(Nc3ncc(F)c(-c4cc(F)c5nc(C)n(C(C)C)c5c4)n3)nc2)CC1
2.92 nM: IC50 (second compound 0.1 µM)
2.75 nM: IC50 (second compound 0.316 µM)
inactive: viability, T/C (second compound 0.01 µM, first compound 0.000316 µM) 72.6% | viability, T/C (second compound 0.01 µM, first compound 0.001 µM) 47.8% | viability, T/C (second compound 0.01 µM, first compound 0.00316 µM) 39.2% | viability, T/C (second compound 0.01 µM, first compound 0.01 µM) 33% | viability, T/C [1] 26.8% | viability, T/C [2] 21.1% | viability, T/C (second compound 0.0316 µM, first compound 0.000316 µM) 66.7% | viability, T/C (second compound 0.0316 µM, first compound 0.001 µM) 68.2% | viability, T/C (second compound 0.0316 µM, first compound 0.00316 µM) 54.3% | viability, T/C (second compound 0.0316 µM, first compound 0.01 µM) 28.1% | viability, T/C [3] 26.6% | viability, T/C [4] 23.5% | viability, T/C (second compound 0.1 µM, first compound 0.000316 µM) 62.6% | viability, T/C (second compound 0.1 µM, first compound 0.001 µM) 50.2% | viability, T/C (second compound 0.1 µM, first compound 0.00316 µM) 52.2% | viability, T/C (second compound 0.1 µM, first compound 0.01 µM) 30.3% | viability, T/C [5] 25.7% | viability, T/C [6] 20.6% | viability, T/C (second compound 0.316 µM, first compound 0.000316 µM) 47.5% | viability, T/C (second compound 0.316 µM, first compound 0.001 µM) 56.6% | viability, T/C (second compound 0.316 µM, first compound 0.00316 µM) 49.6% | viability, T/C (second compound 0.316 µM, first compound 0.01 µM) 33.4% | viability, T/C [7] 32.7% | viability, T/C [8] 30.2% | viability, T/C (second compound 1 µM, first compound 0.000316 µM) 56.7% | viability, T/C (second compound 1 µM, first compound 0.001 µM) 74% | viability, T/C (second compound 1 µM, first compound 0.00316 µM) 57.7% | viability, T/C (second compound 1 µM, first compound 0.01 µM) 49% | viability, T/C [9] 45.5% | viability, T/C [10] 34.7%
12.3 nM: IC50 (second compound 1 µM)
3.84 nM: IC50 (second compound 0.0316 µM)
1.1 nM: IC50 (second compound 0.01 µM)

CCCS(=O)(=O)Nc1ccc(F)c(C(=O)c2c[nH]c3ncc(-c4ccc(Cl)cc4)cc23)c1F + CCN1CCN(Cc2ccc(Nc3ncc(F)c(-c4cc(F)c5nc(C)n(C(C)C)c5c4)n3)nc2)CC1
681 nM: IC50 (second compound 0.0316 µM)
582 nM: IC50 (second compound 0.316 µM)
590 nM: IC50 (second compound 0.01 µM)
907 nM: IC50 (second compound 1 µM)
454 nM: IC50 (second compound 0.1 µM)
inactive: viability, T/C [1] 95% | viability, T/C [2] 70.8% | viability, T/C (second compound 0.01 µM, first compound 0.316 µM) 52.4% | viability, T/C (second compound 0.01 µM, first compound 1 µM) 50.7% | viability, T/C (second compound 0.01 µM, first compound 3.16 µM) 35% | viability, T/C (second compound 0.01 µM, first compound 10 µM) 24.7% | viability, T/C [3] 86.4% | viability, T/C [4] 64.9% | viability, T/C (second compound 0.0316 µM, first compound 0.316 µM) 66.6% | viability, T/C (second compound 0.0316 µM, first compound 1 µM) 43.4% | viability, T/C (second compound 0.0316 µM, first compound 3.16 µM) 30.9% | viability, T/C (second compound 0.0316 µM, first compound 10 µM) 20.5% | viability, T/C [5] 65% | viability, T/C [6] 60.2% | viability, T/C (second compound 0.1 µM, first compound 0.316 µM) 58.8% | viability, T/C (second compound 0.1 µM, first compound 1 µM) 30.9% | viability, T/C (second compound 0.1 µM, first compound 3.16 µM) 23.2% | viability, T/C (second compound 0.1 µM, first compound 10 µM) 29.5% | viability, T/C [7] 74.2% | viability, T/C [8] 65.7% | viability, T/C (second compound 0.316 µM, first compound 0.316 µM) 63.4% | viability, T/C (second compound 0.316 µM, first compound 1 µM) 38.6% | viability, T/C (second compound 0.316 µM, first compound 3.16 µM) 28.6% | viability, T/C (second compound 0.316 µM, first compound 10 µM) 23% | viability, T/C [9] 81.5% | viability, T/C [10] 81.2% | viability, T/C (second compound 1 µM, first compound 0.316 µM) 70.3% | viability, T/C (second compound 1 µM, first compound 1 µM) 47.4% | viability, T/C (second compound 1 µM, first compound 3.16 µM) 38.1% | viability, T/C (second compound 1 µM, first compound 10 µM) 32.1%
